The target in data set [1] is Poly [ADP-ribose] polymerase 1 (Homo sapiens, UniProt P09874). The settings on record: dose 10.0 nM, time 90.0 min.
Data set [2] deals with MDA-MB-231. In words: Antitumor activity against human MDA-MB-231 cells xenografted in BALB/c mouse assessed as tumor growth inhibition at 25 mg/kg, ip administered for 21 days. The class given is functional. Conditions: MDA-MB-231, 504 h, time 21 day, read-out: TGI. In general terms: Xenograft models place foreign cells or tissue in a host animal.
Data set [3] deals with T1, Protein mono-ADP-ribosyltransferase TIPARP (Homo sapiens, UniProt Q7Z3E1).
T1 sequence (Q7Z3E1 whole entry): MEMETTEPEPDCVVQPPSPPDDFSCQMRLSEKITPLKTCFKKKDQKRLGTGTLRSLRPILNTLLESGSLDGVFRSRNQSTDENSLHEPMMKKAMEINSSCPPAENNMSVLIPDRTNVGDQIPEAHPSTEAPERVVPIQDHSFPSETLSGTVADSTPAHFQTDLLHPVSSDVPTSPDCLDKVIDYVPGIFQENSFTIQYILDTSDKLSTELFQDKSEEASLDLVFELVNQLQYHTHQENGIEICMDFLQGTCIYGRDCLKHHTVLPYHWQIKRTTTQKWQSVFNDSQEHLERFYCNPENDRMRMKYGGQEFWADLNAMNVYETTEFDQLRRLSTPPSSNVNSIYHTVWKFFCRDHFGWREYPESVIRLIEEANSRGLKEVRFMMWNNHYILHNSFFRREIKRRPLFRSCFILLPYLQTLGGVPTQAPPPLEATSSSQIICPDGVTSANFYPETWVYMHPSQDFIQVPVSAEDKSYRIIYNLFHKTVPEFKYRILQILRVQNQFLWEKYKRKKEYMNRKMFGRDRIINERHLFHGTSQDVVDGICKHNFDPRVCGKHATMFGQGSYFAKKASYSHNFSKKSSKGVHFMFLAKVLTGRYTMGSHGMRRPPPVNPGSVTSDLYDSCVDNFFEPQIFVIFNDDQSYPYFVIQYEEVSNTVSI
In words: Inhibition of PARP7 (unknown origin).

Data set [4] is described as follows: Toxicity in BALB/c mouse xenografted with human MDA-MB-231 cells assessed as heart damage at 20 to 40 mg/kg, ip administered for 21 days by H and E staining based analysis. The class given is organism-based. The settings on record: in vivo, 504 h, dose 20-40 mg/kg, time 21 day.
Data set [5] in a line: Clearance in Sprague-Dawley rat at 1 mg/kg, iv by LC-MS/MS analysis. Type of data set: ADME, organism-based. Conditions: in vivo.
Data set [6] is described as follows: Cmax in Sprague-Dawley rat at 1 mg/kg, iv by LC-MS/MS analysis. Type of data set: ADME, organism-based. The settings on record: in vivo.
Data set [7] relates to MDA-MB-436. The experiment in a line: Antiproliferative activity against human MDA-MB-436 cells transfected with SiRNA assessed as inhibition of cell proliferation incubated for 5 days by MTT assay. Type of data set: functional, cell-based. Conditions: time 5.0 day. In general terms: Tetrazolium assays rely on reduction of a dye to a coloured formazan, in cell work by metabolically active cells.

Data set [8] can be described thus: Half life in Sprague-Dawley rat at 1 mg/kg, iv by LC-MS/MS analysis. Type of data set: ADME, organism-based. The settings on record: in vivo.
Data set [9] concerns MDA-MB-231. The experiment in a line: Antiproliferative activity against 53BP1-knockdown human MDA-MB-231 cells incubated for 24 hrs by MTT assay. Type of data set: functional, cell-based.
In data set [10] the target is T2, Poly [ADP-ribose] polymerase tankyrase-2 (Homo sapiens, UniProt Q9H2K2).
T2 sequence (Q9H2K2 whole entry): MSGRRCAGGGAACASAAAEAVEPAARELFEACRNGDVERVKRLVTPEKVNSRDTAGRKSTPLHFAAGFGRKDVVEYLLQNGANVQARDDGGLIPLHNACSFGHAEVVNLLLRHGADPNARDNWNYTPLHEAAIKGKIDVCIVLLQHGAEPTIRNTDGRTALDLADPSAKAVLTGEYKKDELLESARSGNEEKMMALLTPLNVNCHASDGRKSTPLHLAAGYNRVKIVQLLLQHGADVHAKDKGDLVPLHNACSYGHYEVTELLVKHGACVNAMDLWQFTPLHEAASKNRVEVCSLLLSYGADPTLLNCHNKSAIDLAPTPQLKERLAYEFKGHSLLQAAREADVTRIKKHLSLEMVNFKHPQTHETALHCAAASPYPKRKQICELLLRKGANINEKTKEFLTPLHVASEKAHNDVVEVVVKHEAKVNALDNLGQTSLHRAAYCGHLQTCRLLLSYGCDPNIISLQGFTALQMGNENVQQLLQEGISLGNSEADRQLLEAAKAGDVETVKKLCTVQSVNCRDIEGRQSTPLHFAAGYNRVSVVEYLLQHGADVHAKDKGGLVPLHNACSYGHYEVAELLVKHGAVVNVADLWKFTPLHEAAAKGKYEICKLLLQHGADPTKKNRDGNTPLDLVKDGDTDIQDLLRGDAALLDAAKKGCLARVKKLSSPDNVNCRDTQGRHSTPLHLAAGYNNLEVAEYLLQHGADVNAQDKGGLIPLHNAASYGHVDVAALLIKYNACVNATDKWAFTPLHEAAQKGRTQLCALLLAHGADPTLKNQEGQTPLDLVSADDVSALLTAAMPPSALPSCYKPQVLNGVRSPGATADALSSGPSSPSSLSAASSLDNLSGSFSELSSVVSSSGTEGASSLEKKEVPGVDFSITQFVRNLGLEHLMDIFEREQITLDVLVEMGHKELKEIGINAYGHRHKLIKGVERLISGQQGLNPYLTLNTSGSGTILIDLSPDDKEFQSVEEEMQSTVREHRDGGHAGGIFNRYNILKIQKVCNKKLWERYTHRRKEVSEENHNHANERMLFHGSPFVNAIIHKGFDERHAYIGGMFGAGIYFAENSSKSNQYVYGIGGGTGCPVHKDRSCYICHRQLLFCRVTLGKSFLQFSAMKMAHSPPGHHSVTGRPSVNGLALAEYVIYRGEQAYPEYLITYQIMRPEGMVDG
The experiment in a line: Inhibition of PARP5b (unknown origin).

The target in data set [11] is Poly [ADP-ribose] polymerase 2 (Homo sapiens, UniProt Q9UGN5). The experiment in a line: Inhibition of PARP2 (unknown origin).
A short description of data set [12]: Metabolic stability in mouse liver microsome assessed as half life. The settings on record: liver microsomes. The class given is ADME. (In general: Liver microsomes are a subcellular fraction often used to study metabolism.)
For data set [13], the system named is MCF-10A. In words: Effect on DNA polymerase theta expression in human MCF-10A cells by immunoblotting analysis. Type of data set: functional, cell-based.
In data set [14] the test system is MDA-MB-231. In words: Antitumor activity against human MDA-MB-231 cells xenografted in ip dosed BALB/c mouse assessed as increase in gammaH2Ax expression administered for 21 days. Type of data set: functional, organism-based. Conditions: dose 20-40 mg/kg, time 21.0 day.
In data set [15] the test system is HCC1937. The experiment in a line: Antiproliferative activity against BRCA1-deficient human HCC1937 cells assessed as inhibition of cell proliferation incubated for 5 days by MTT assay. Type of data set: functional, cell-based. The settings on record: HCC1937, 120 h.
The nature of data set [16]: Metabolic stability in rat liver microsome assessed as half life. Type of data set: ADME. Conditions: liver microsomes.

Calls of active or inactive are those of the source.

Sequence of Poly [ADP-ribose] polymerase 1 (P09874 whole entry): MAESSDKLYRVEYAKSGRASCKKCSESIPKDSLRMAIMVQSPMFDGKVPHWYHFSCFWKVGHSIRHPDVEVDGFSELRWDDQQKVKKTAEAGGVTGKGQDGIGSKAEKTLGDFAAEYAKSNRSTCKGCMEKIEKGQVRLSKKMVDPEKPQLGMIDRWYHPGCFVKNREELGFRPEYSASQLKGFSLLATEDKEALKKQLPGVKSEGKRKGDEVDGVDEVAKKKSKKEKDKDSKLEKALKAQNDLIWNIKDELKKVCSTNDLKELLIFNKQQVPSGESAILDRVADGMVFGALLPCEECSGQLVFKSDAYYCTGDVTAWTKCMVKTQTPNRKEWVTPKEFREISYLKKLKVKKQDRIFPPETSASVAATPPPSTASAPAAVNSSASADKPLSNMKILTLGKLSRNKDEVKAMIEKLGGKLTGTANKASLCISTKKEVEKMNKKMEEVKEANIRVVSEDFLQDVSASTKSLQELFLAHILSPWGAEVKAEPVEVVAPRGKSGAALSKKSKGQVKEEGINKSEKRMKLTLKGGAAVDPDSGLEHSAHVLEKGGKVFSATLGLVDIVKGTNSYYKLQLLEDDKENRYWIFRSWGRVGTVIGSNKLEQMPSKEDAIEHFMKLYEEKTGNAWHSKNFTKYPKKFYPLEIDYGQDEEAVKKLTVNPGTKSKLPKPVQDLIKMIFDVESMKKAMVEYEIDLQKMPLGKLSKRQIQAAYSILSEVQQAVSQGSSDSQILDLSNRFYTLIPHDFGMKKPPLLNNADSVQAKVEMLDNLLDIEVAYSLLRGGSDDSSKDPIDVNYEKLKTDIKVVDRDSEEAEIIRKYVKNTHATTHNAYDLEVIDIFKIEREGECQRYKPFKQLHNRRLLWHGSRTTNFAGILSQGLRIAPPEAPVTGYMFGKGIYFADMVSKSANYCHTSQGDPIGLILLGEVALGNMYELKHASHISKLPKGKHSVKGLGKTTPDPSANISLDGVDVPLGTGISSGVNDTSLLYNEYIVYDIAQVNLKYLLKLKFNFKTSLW
Sequence of Poly [ADP-ribose] polymerase 2 (Q9UGN5 whole entry): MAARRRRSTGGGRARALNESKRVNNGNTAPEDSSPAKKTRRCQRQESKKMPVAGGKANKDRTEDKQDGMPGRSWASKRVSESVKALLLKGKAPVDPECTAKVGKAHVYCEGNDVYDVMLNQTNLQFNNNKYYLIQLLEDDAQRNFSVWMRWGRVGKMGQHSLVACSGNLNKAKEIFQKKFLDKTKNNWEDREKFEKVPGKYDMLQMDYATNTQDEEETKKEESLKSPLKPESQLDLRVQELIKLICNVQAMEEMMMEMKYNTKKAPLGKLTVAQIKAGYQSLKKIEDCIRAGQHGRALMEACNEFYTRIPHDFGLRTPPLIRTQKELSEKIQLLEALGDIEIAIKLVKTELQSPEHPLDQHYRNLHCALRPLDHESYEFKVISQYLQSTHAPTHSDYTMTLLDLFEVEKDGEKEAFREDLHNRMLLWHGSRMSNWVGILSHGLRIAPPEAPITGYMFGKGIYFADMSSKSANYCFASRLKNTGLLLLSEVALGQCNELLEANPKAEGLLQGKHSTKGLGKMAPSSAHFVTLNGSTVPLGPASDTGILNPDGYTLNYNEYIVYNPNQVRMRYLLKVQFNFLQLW

As to `COc1ccc(Cl)cc1-c1cc(C)ncc1C(=O)Nc1nnc(OCC2CCN(C(=O)c3cc(Cc4n[nH]c(=O)c5ccccc45)ccc3F)CC2)s1`, the inhibition (as a rule, the relative decrease from the control value, in per cent) in data set [1] was found to be 71.1%. For the same compound, the inhibition in vivo at 25 mg/kg in data set [2] came out at 54.4%. Moreover, the IC50 (as a rule, the point on the concentration scale where inhibition reaches its midpoint) in [3] was 194 nM; in [10] it was 156 nM; in [11], 2.3 nM; in data set [15], 20900 nM. Further, the Activity result in data set [4] was “Non-Toxic”; in data set [14], “Dose-Dependent Effect”. In addition, in data set [5], the clearance – broadly, the rate of elimination divided by the concentration – is 22.7 mL/min/kg. Also, the Cmax (in general, the maximum level reached in the sampled fluid or tissue) in data set [6] is 1950 ng/mL. The result in [7], in data set [9] and in data set [13] was Active. Besides, the half-life (in general, the time needed for the level to fall by half in the phase considered) in [8] was 120 min; in [12] it was 5.1 min; in data set [16], 3.11 min.

The values are drawn from ChEMBL document CHEMBL5518204, “Discovery and Proof of Concept of Potent Dual Polθ/PARP Inhibitors for Efficient Treatment of Homologous Recombination-Deficient Tumors” (J Med Chem, 2024).
